Assay results reported in the NIST ThermoML archive (doi:10.1016/j.fluid.2018.10.006).

Conditions: Fluid (supercritical or subcritical phases), Coaxial cylinder method

CCCCCC [hexane]
Conditions	thermal conductivity [W/m/K]
508.92 K, 3088 kPa	0.1061
508.92 K, 3089 kPa	0.1087
508.92 K, 3090 kPa	0.1096
508.92 K, 3091 kPa	0.11
508.92 K, 3092 kPa	0.1093
508.92 K, 3093 kPa	0.1071
508.92 K, 3094 kPa	0.1049
508.92 K, 3095 kPa	0.1028
508.92 K, 3096 kPa	0.101
508.92 K, 3097 kPa	0.09872
508.92 K, 3098 kPa	0.0967
508.92 K, 3099 kPa	0.0947
508.92 K, 3100 kPa	0.09356
508.92 K, 3101 kPa	0.09223
508.92 K, 3102 kPa	0.09134
508.92 K, 3103 kPa	0.09045
508.92 K, 3104 kPa	0.08916
508.92 K, 3105 kPa	0.08837
508.92 K, 3106 kPa	0.08751
508.92 K, 3107 kPa	0.08708
508.92 K, 3108 kPa	0.08666
508.92 K, 3109 kPa	0.08604
508.92 K, 3110 kPa	0.08542
508.92 K, 3111 kPa	0.08502
508.92 K, 3112 kPa	0.08462
508.92 K, 3113 kPa	0.08398
508.92 K, 3114 kPa	0.08318
508.92 K, 3115 kPa	0.08318
508.92 K, 3120 kPa	0.08124
508.92 K, 3125 kPa	0.07976
508.92 K, 3130 kPa	0.07868
508.92 K, 3135 kPa	0.07761
508.92 K, 3140 kPa	0.07664
508.92 K, 3145 kPa	0.07595
508.92 K, 3150 kPa	0.07561
508.92 K, 3155 kPa	0.07461
508.92 K, 3159 kPa	0.07461
508.92 K, 3160 kPa	0.07429
508.92 K, 3165 kPa	0.07396
508.92 K, 3170 kPa	0.07364
508.92 K, 3175 kPa	0.07309
508.92 K, 3180 kPa	0.07309
508.92 K, 3185 kPa	0.07278
508.92 K, 3190 kPa	0.07248
508.92 K, 3195 kPa	0.07217
508.92 K, 3200 kPa	0.07227
508.92 K, 3205 kPa	0.07189
508.92 K, 3215 kPa	0.07157
508.92 K, 3220 kPa	0.07128
508.92 K, 3225 kPa	0.07128
508.92 K, 3230 kPa	0.07107
508.92 K, 3235 kPa	0.07101
508.92 K, 3240 kPa	0.07092
508.92 K, 3245 kPa	0.07081
508.92 K, 3250 kPa	0.07098
508.92 K, 3255 kPa	0.07098
508.92 K, 3260 kPa	0.07098
508.92 K, 3265 kPa	0.07069
508.92 K, 3270 kPa	0.07069
508.92 K, 3275 kPa	0.07069
508.92 K, 3280 kPa	0.07069
508.92 K, 3285 kPa	0.07069
508.92 K, 3290 kPa	0.0704
508.92 K, 3295 kPa	0.0704
508.92 K, 3300 kPa	0.0704
508.92 K, 3310 kPa	0.0704
508.92 K, 3320 kPa	0.07069
508.92 K, 3330 kPa	0.07069
508.92 K, 3340 kPa	0.07069
508.92 K, 3350 kPa	0.0707
508.92 K, 3355 kPa	0.07041
508.92 K, 3360 kPa	0.07041
508.92 K, 3365 kPa	0.07041
508.92 K, 3370 kPa	0.07041
508.92 K, 3375 kPa	0.07041
508.92 K, 3380 kPa	0.07041
508.92 K, 3385 kPa	0.07041
508.92 K, 3390 kPa	0.07013
508.92 K, 3395 kPa	0.07013
508.92 K, 3500 kPa	0.07013
508.92 K, 3535 kPa	0.07013
508.92 K, 3540 kPa	0.07013
508.92 K, 3545 kPa	0.06984
508.92 K, 3550 kPa	0.07041
508.92 K, 3555 kPa	0.07041
508.92 K, 3560 kPa	0.07041
508.92 K, 3565 kPa	0.07041
508.92 K, 3570 kPa	0.07041
508.92 K, 3605 kPa	0.06984
508.92 K, 3670 kPa	0.06984
508.92 K, 3690 kPa	0.06984
508.92 K, 3700 kPa	0.0707
508.92 K, 3900 kPa	0.0707
508.92 K, 4000 kPa	0.0707
508.92 K, 4300 kPa	0.07129
508.92 K, 4400 kPa	0.07159
508.92 K, 4500 kPa	0.07188
508.92 K, 4600 kPa	0.07219
508.92 K, 4700 kPa	0.07219
508.92 K, 4800 kPa	0.0725
508.92 K, 4900 kPa	0.0725
508.92 K, 5000 kPa	0.0728
508.92 K, 5100 kPa	0.0728
508.92 K, 5200 kPa	0.07342
508.92 K, 5300 kPa	0.07342
508.92 K, 5400 kPa	0.07342
508.92 K, 5500 kPa	0.07373
508.92 K, 5600 kPa	0.07437
508.92 K, 5800 kPa	0.07437
508.92 K, 6000 kPa	0.07437
508.92 K, 6100 kPa	0.07437
508.92 K, 6200 kPa	0.07469
508.92 K, 6400 kPa	0.07501
508.92 K, 6500 kPa	0.07534
508.92 K, 7000 kPa	0.07634
508.92 K, 7500 kPa	0.07702
508.92 K, 8000 kPa	0.07771
508.92 K, 8500 kPa	0.07771
508.92 K, 9000 kPa	0.07828
508.92 K, 9500 kPa	0.07915
508.92 K, 10000 kPa	0.07951
509.85 K, 2686 kPa	0.04642
509.85 K, 2700 kPa	0.04668
509.85 K, 2710 kPa	0.04655
509.85 K, 2720 kPa	0.04706
509.85 K, 2730 kPa	0.0472
509.85 K, 2740 kPa	0.04733
509.85 K, 2750 kPa	0.04759
509.85 K, 2760 kPa	0.04786
509.85 K, 2770 kPa	0.04813
509.85 K, 2780 kPa	0.04827
509.85 K, 2790 kPa	0.04841
509.85 K, 2800 kPa	0.04854
509.85 K, 2805 kPa	0.04868
509.85 K, 2810 kPa	0.04882
509.85 K, 2815 kPa	0.0491
509.85 K, 2820 kPa	0.04925
509.85 K, 2825 kPa	0.04939
509.85 K, 2830 kPa	0.04953
509.85 K, 2835 kPa	0.04968
509.85 K, 2840 kPa	0.04957
509.85 K, 2845 kPa	0.04972
509.85 K, 2850 kPa	0.04986
509.85 K, 2855 kPa	0.05001
509.85 K, 2860 kPa	0.05016
509.85 K, 2865 kPa	0.05031
509.85 K, 2870 kPa	0.05046
509.85 K, 2875 kPa	0.05061
509.85 K, 2880 kPa	0.05077
509.85 K, 2885 kPa	0.05123
509.85 K, 2890 kPa	0.05123
509.85 K, 2895 kPa	0.05139
509.85 K, 2900 kPa	0.05154
509.85 K, 2905 kPa	0.0517
509.85 K, 2910 kPa	0.05186
509.85 K, 2915 kPa	0.05218
509.85 K, 2920 kPa	0.05243
509.85 K, 2925 kPa	0.05259
509.85 K, 2930 kPa	0.05293
509.85 K, 2935 kPa	0.05309
509.85 K, 2940 kPa	0.05326
509.85 K, 2945 kPa	0.05344
509.85 K, 2950 kPa	0.05378
509.85 K, 2955 kPa	0.05395
509.85 K, 2960 kPa	0.05431
